Literature values as cited in patent US7592371B2, “External preparation” (Medrx Co., Ltd., priority 2004, dated 2009).

Conditions: oral administration

In the case of COc1ccc(C=CC(=O)Nc2ccccc2C(=O)O)cc1OC [tranilast, N-(3,4-Dimethoxycinnamoyl) anthranilic acid], the side effects is listed as “serious side effects such as hepatic dysfunction and renal dysfunction”.
